From paper PMC9081329, “Pharmacokinetics, Mass Balance, Excretion, and Tissue Distribution of Plasmalogen Precursor PPI-1011” (Frontiers in Cell and Developmental Biology, 2022)
Where “and” joins values, the source holds several entries; their conditions need not be identical. Equal entries are not always repeated.

Columns and labels:
[1] = Mass balance and excretion study, single oral dose 100 mg/kg; assay type: in vivo, Sprague-Dawley rats
Procedure: Four male rats were administered a single oral dose of [^14C]PPI-1011 at 100 mg/kg (200 μCi/kg). Feces, urine, and the cage rinse samples were collected at pre-determined times up to 168 h post-dose (HPD). The expired air was collected using a carbon dioxide trapping apparatus equipped with airflow apparatus. Expired [^14C]CO2 was collected for two of the four dosed animals for 24 h after the dose in a solution of ethanolamine:2-methoxyethanol (1:3, v/v) in two traps. Rats were sacrificed by overdose of CO2 and each cage was rinsed with 25% ethanol in water (>50 ml) at the end of the study. The cage rinse sample and the expired [^14C]CO2 was stored at 4°C.
Diluted dose solutions, plasma, urine, and cage rinse were analyzed in duplicate by LSC, as described above. The expired CO2 was analyzed the same day it was collected by mixing a 1 ml aliquot of the carbon dioxide absorbents with 5 ml of Hionic-Fluor for radioactivity concentrations with LSC. Feces samples were homogenized in 5-fold volume of purified water then duplicate fecal homogenate aliquots were transferred to Combusto Cones and combusted with a Sample Oxidizer (Model A307, Perkin Elmer) equipped with an Oximate 80 Robotic Automatic Samples. The [^14C]CO2 generated by the combustion was also collected in Carbo Sorb E and radioactivity was determined with PermaFluor as the scintillant using a Tri-Carb LSC.

[2] = Dose formulation stability by HPLC with radioactivity detection; assay type: physicochemical; details: 20 mg/ml in LCO with 0.1% 1-thioglycerol
Procedure: PPI-1011 and [^14C]PPI-1011 were formulated together in liquid coconut oil (LCO) containing 0.1% 1-thioglycerol for oral dosing. For single dose studies, PPI-1011 and [^14C]PPI-1011 were combined to generate an oral formulation with a concentration of 20 mg/ml and 40 μCi/ml on the day before dosing and stored at 4°C. Formulation for the repeat dosing QWBA experiment was made on the day prior to the first dose with a concentration of 20 mg/ml and 20 μCi/ml. This formulation was then aliquoted and stored frozen at −20°C until the day of use. Concentration and radiochemical purity of all formulations were confirmed by HPLC prior to dosing.
Radiochemical concentrations and purity of the oral dose formulations were all confirmed to be >97% by HPLC with radioactivity detection. The mean radioactivity concentrations of dose formulations were 21.24 μCi/g. Representative radiochromatograms obtained from analysis of dose formulation of [^14C]PPI-1011 are shown in Supplementary Figure S1. The retention time of [^14C]PPI-1011 was approximately 12 min. The stability of the dose formulation at 20 mg/ml concentration was examined at 4°C and at −20°C for up to 24 h. The results are shown in Supplementary Figure S2. […]

With CC/C=C\C/C=C\C/C=C\C/C=C\C/C=C\C/C=C\CCC(=O)O[C@H](CO[14CH2]CCCCCCCCCCCCCCC)COC(=O)CCCCC1CCSS1 (stereo partly shown) [[^14C]PPI-1011] the “Dose recovered in feces” value ([1]; 168 h collection period, single oral 100 mg/kg) was 42.51 ± 7.16%, the “Total dose excreted in urine and feces” value ([1]; between 24 and 48 h) was “approximately 6%” and the “Additional excretion in urine and feces” value ([1]; between 48 and 168 h) was less than 3%. For the same compound, the “Compound-associated radioactivity absorbed by the body” value ([1]; single oral 100 mg/kg) was “over 50%”, the “Dose found in urine” value ([1]; up to day seven, single oral 100 mg/kg, 100 mg/kg) was 2.40 ± 0.59% and < 2.5% and the “Dosed radioactivity recovered in urine and feces including cage rinses” value ([1]; within 168 h collection period, single oral 100 mg/kg) was 45.10 ± 7.34%. The “Compound-associated radioactivity excreted in the feces” value ([1]; within the first 24 h) was “approximately 40%”, the “Compound-associated radioactivity excreted in the urine” value ([1]; within the first 24 h) was roughly 2.5% and the “Radioactive purity of dose formulation after storage (stability)” value ([2]; up to 24 h at 4°C) was 96.5%. For the same compound, the “Radioactive purity of dose formulation after storage (stability)” value ([2]; up to 24 h at −20°C) was 97.2%.
